The numbers were not newly measured in patent US7388012B2, “(Hydrazido)(amino)thiophene compounds” (OSI Pharmaceuticals, Inc., priority 2004, dated 2008), which cites them from elsewhere.

SMILES strings stand for the structures. Where a name gives a salt, the structure may show the parent alone.

The subject of data set [1] is MO7e human leukemia cells.
The subject of data set [2] is MO7e human leukemia cells. This is another data set of the same source.

As for `Cc1ccc(NC(=O)c2ccc(CN3CCN(C)CC3)cc2)cc1Nc1nccc(-c2cccnc2)n1` [Gleevec, imatinib mesylate], the “GM-CSF stimulated growth of MO7e human leukemia cells” value in data set [1] was “not affected”. Besides, the “Kit ligand-stimulated growth of MO7e human leukemia cells” value in data set [2] (Kit ligand-stimulated) is “inhibited”. Moreover, in data set [2] (Kit ligand-stimulated conditions), the “apoptosis of MO7e human leukemia cells” value was “induces apoptosis”.
